Results on eight compounds are retold here after ChEMBL document CHEMBL1201862, “PubChem BioAssay data set” (2004).

Holding throughout (test): NCI-60 cell line screen, 48 h
In assay [1] the test system is BT-549.
The test system of assay [2] is DU-145.
Assay [3] relates to EKVX.
In assay [4] the test system is HCC 2998.
Assay [5] has as its system HL-60.
The subject of assay [6] is HOP-62.
The subject of assay [7] is HOP-92.
Assay [8] concerns IGROV-1.
Assay [9] concerns MDA-MB-231.
Assay [10] deals with MDA-N.
The test system of assay [11] is Malme-3M.
Assay [12] concerns NCI-H23.
For assay [13], the system named is NCI-H522.
Assay [14] concerns NCI/ADR-RES.
For assay [15], the system named is RPMI-8226.
For assay [16], the system named is SF-539.
In assay [17] the test system is SN12C.
Assay [18] deals with SNB-75.
Assay [19] relates to UACC-62.

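In this assay, cells in 96-well plates receive the compound at five concentrations for 48 hours. Endpoints are linearly interpolated between the surrounding concentrations. The concentration for 50% growth inhibition is given as GI50.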 Calls of active or inactive are those of the source. Rule as the data show it: active = GI50 up to about 1.1 µM and inactive = higher.

Consider `COc1ccc2[nH]c(C(=O)N3CC(CCl)c4ccc(N)cc43)cc2c1` (stereo not given), for which the GI50 was 0.412 µM (active) in assay [1]; 0.0551 µM (active) in [2]; 0.368 µM (active) in assay [3]; 0.14 µM (active) in [4]; 0.0593 µM (active) in assay [5]; 0.327 µM (active) in assay [6]. Moreover, the GI50 is 0.634 µM (active) in [7]; 0.175 µM (active) in [8]; 0.202 µM (active) in [9]; 0.144 µM (active) in assay [10]; 0.141 µM (active) in assay [11]; 0.0726 µM (active) in assay [12]. The GI50 is 0.0161 µM (active) in assay [13]; 0.0912 µM (active) in assay [14]; 0.361 µM (active) in assay [15]; 0.211 µM (active) in assay [16]; 0.347 µM (active) in assay [17]; 0.178 µM (active) in assay [18]. The GI50 in assay [19] was 0.141 µM (active).

As for `CC(=O)n1nc(-c2ccccc2)n(/N=C/c2ccc([N+](=O)[O-])o2)c1=O`, the GI50 in assay [1] was 8.32 µM (inactive); in assay [2], 7.91 µM (inactive); in assay [3], 0.933 µM (active); in assay [4], 4.53 µM (inactive); in assay [5] it was 3.59 µM (inactive); in [6], 4.94 µM (inactive). In addition, the GI50 is 9.86 µM (inactive) in assay [7]; 15.9 µM (inactive) in assay [8]; 8.34 µM (inactive) in [9]; 1.81 µM (inactive) in [10]; 6.67 µM (inactive) in assay [11]; 7.64 µM (inactive) in assay [12]. Also, the GI50 in assay [13] was 3.7 µM (inactive); in assay [14], 9.73 µM (inactive); in [15] it was 10 µM (inactive); in [16], 8.79 µM (inactive); in assay [17], 2.13 µM (inactive); in [18], 10.2 µM (inactive). In assay [19], the GI50 was 10.4 µM (inactive).

Regarding `COc1cccc2c1C(=O)c1c(O)c3c(c(O)c1C2=O)C[C@@](O)(/C(C)=N/NC(=O)c1ccccc1)C[C@@H]3OC1CC(N)C(O)C(C)O1` (stereo not given in full), the GI50 is 0.304 µM (active) in assay [1]; 0.135 µM (active) in assay [2]; 0.693 µM (active) in [3]; 0.481 µM (active) in assay [4]; 0.0604 µM (active) in [5]; 0.122 µM (active) in assay [6]. Besides, the GI50 is 0.114 µM (active) in assay [7]; 0.262 µM (active) in assay [8]; 0.49 µM (active) in assay [9]; 0.308 µM (active) in assay [10]; 0.213 µM (active) in [11]; 0.201 µM (active) in assay [12]. Moreover, the GI50 in assay [13] is 0.19 µM (active); in assay [14], 16.3 µM (inactive); in [15], 0.137 µM (active); in assay [16] it was 0.261 µM (active); in assay [17] it was 0.155 µM (active); in assay [18], 0.373 µM (active). In addition, the GI50 in assay [19] was 0.242 µM (active).

Take `COc1ccc2c(c1)CCc1cc(OC)ccc1/[N+]([O-])=[N+]\2[O-]`: the GI50 in assay [1] was 14.8 µM (inactive); in assay [2], 18.1 µM (inactive); in assay [3] it was 20.8 µM (inactive); in assay [4], 30.1 µM (inactive); in assay [5] it was 6.11 µM (inactive); in [6], 21.6 µM (inactive). Also, the GI50 in assay [7] is 13.2 µM (inactive); in assay [8], 12.1 µM (inactive); in [9], 18.7 µM (inactive); in assay [10] it was 14.3 µM (inactive); in [11] it was 19.5 µM (inactive); in assay [12], 23.1 µM (inactive). Moreover, the GI50 was 5.93 µM (inactive) in [13]; 24.9 µM (inactive) in assay [14]; 4.86 µM (inactive) in [15]; 21.2 µM (inactive) in [16]; 16.2 µM (inactive) in [17]; 17.9 µM (inactive) in assay [18]. Also, in [19], the GI50 is 15.8 µM (inactive).

With `Cc1csc2nc(-c3ccc([N+](=O)[O-])cc3)c(/C=N/N=C(N)N)n12`, the GI50 in assay [1] was 0.189 µM (active); in assay [2], 2.21 µM (inactive); in assay [3], 1.39 µM (inactive); in [4], < 0.01 µM (active); in assay [5] it was 1.85 µM (inactive); in assay [6], 1.7 µM (inactive). Also, the GI50 is < 0.01 µM (active) in assay [7]; 1.44 µM (inactive) in assay [8]; 1.76 µM (inactive) in [9]; 1.8 µM (inactive) in [10]; 1.53 µM (inactive) in assay [11]; 1.64 µM (inactive) in assay [12]. Further, the GI50 in assay [13] is 1.63 µM (inactive); in assay [14], 6.89 µM (inactive); in assay [15], 2.05 µM (inactive); in [16], 1.85 µM (inactive); in assay [17] it was 1.71 µM (inactive); in assay [18], 1.58 µM (inactive). For the same compound, the GI50 in [19] is 1.71 µM (inactive).

Consider `Cc1ccc(C2=Nc3c(N)nc(N)nc3NC(c3ccccc3)C2)cc1` (stereo not given), for which the GI50 in [1] is 9.46 µM (inactive); in assay [2], 14.8 µM (inactive); in [3], 13.5 µM (inactive); in assay [4], 7.41 µM (inactive); in [5] it was 3.08 µM (inactive); in assay [6] it was 12.5 µM (inactive). The GI50 in assay [7] was 10.3 µM (inactive); in assay [8], 7.16 µM (inactive); in [9], 7.4 µM (inactive); in assay [10] it was 2.22 µM (inactive); in [11], 10.9 µM (inactive); in [12] it was 11.3 µM (inactive). Moreover, the GI50 in assay [13] is 3.65 µM (inactive); in assay [14] it was 4.34 µM (inactive); in assay [15], 7.01 µM (inactive); in [16], 12.1 µM (inactive); in assay [17] it was 11.4 µM (inactive); in assay [18], 15.2 µM (inactive). The GI50 in assay [19] was 10.3 µM (inactive).

On to `Brc1ccc(/C(N=N/C(=N\Sc2ccccc2)c2ccc(Br)cc2)=N/Sc2ccccc2)cc1`, for which the GI50 in assay [1], in [2], in assay [3], in assay [4], in [5] and in assay [6] was > 100 µM (inactive) throughout. For the same compound, the GI50 in assay [7], in [8], in [9], in assay [10], in assay [11] and in assay [12] was > 100 µM (inactive) in each case. The GI50 in [13] was > 100 µM (inactive); in assay [14] it was > 100 µM (inactive); in assay [15], > 100 µM (inactive); in assay [16], > 100 µM (inactive); in [17], > 100 µM (inactive); in [18] it was > 71.8 µM (inactive). Further, in assay [19], the GI50 is > 100 µM (inactive).

`Cc1cc(S(=O)(=O)n2ccnc2Oc2ccccc2)c(SSc2cc(Cl)c(C)cc2S(=O)(=O)n2ccnc2Oc2ccccc2)cc1Cl`: the GI50 in assay [1] is > 100 µM (inactive); in assay [2] it was 74.1 µM (inactive); in [3] it was 5.31 µM (inactive); in assay [4], > 100 µM (inactive); in [5], 2.32 µM (inactive); in [7] it was > 100 µM (inactive). Moreover, the GI50 in assay [8] was 42.6 µM (inactive); in assay [9], > 100 µM (inactive); in assay [10], > 100 µM (inactive); in [11], 57.5 µM (inactive); in assay [13], 5.93 µM (inactive); in assay [14], 43.4 µM (inactive). Besides, the GI50 in assay [15] is > 100 µM (inactive); in assay [16] it was > 100 µM (inactive); in assay [17] it was 85.5 µM (inactive); in assay [18], 1.01 µM (active); in assay [19] it was > 100 µM (inactive).
